Measured values from patent US8133687B2, “Labor biomarkers, methods comprising same, and methods targeting same” (The Trustees of the University of Pennsylvania, priority 2005, dated 2012).
pEC50, pIC50: −log10 of the molar value. Like-named read-outs stand apart in the source and are kept apart here. Where no end group is shown, it is not given here.

Tested on: rat aorta-derived A7R5 vascular smooth muscle cells
Format: cell-based
Settings: for effect on bradykinin response (cell area): added together with 5 nM bradykinin; for effect on cell area when administered without bradykinin: peptide alone; for effect on PGF2α-induced decrease in cell area: with PGF2α (0.56 nM PG in FIG. 10); for effect on oxytocin-induced decrease in cell area: with oxytocin (10 nM OT in FIG. 10)
Protocol: PA gels of controlled stiffness were coated with a nearly constant collagen level (5×10^2 ng/cm^2) as assessed by fluorescent collagen intensities. […] To assess the ability of peptides found in cervicovaginal fluid to activate smooth muscle cells, rat aorta-derived […] vascular smooth muscle cells ([…]; ATCC, Manassas, Va.) were plated onto polyacrylamide gel surfaces (34 kPa) with collagen type 1 (BD Biosciences, San Diego) and covalently pre-attached to the gel surface by sulpho-SANPAH (Pierce, Rockland, Ill.), providing a quantitative and reproducible uterotonics activity assay. Cells were permitted to adhere to the surface for 30 minutes, then were incubated at 37° C. for 4 hours with bradykinin (0-1 μM, Sigma-Aldrich, St. […] Data was fit to a hyperbolic expression using a least squared method, with the half-saturation constant (IC50) representing the intermediate set-point for the system.

[1] = agonist alone, A7R5 cells, 4 hours at 37° C., read-out: IC50 of dose-dependent decrease in cell area
[2] = A7R5 cells, listed as potentiation peptide (PP)

Molecule: CC[C@H](C)[C@@H]1NC(=O)[C@H](Cc2ccc(O)cc2)NC(=O)[C@@H](N)CSSC[C@@H](C(=O)N2CCC[C@H]2C(=O)N[C@@H](CC(C)C)C(=O)NCC(N)=O)NC(=O)[C@H](CC(N)=O)NC(=O)[C@H](CCC(N)=O)NC1=O [Oxytocin, oxytocin, reference compound]
- pIC50 (4 h): 8.10

Molecule: CCCCC[C@H](O)/C=C/[C@@H]1[C@@H](C/C=C\CCCC(=O)O)[C@@H](O)C[C@H]1O [PGF2α, reference compound]
- pIC50 (agonist alone, A7R5 cells, 4 hours at 37° C., listed as PGF2-α, read-out: IC50 of dose-dependent decrease in cell area): 9.25
- pIC50 [1]: 9.00

Molecule: AAHLPAEFTPAVHASLDKF [2.022 kDa peptide, amino acids 110-128 of α-chain hemoglobin]
- effect on bradykinin response (cell area) (A7R5 cells): augmented the bradykinin response
- effect on bradykinin response (cell area) [2]: augmented the 5 nM BK response
- effect on decrease in cell area elicited by maximal doses of bradykinin (bradykinin 1 μM, A7R5 cells): not affected
- effect on cell area when administered without bradykinin (A7R5 cells): Neither the 2.022 kDa peptide nor the control peptide had an effect on cell area
- effect on PGF2α-induced decrease in cell area (A7R5 cells): enhanced by sub-μM amounts
- effect on PGF2α-induced decrease in cell area [2]: augmented the 0.56 nM PG response
- pEC50 (with half-saturation dose of bradykinin (5 nM), A7R5 cells, read-out: half-saturation effect of the peptide on the bradykinin response): 5.03
- effect on oxytocin-induced decrease in cell area (A7R5 cells): enhanced by sub-μM amounts
- effect on oxytocin-induced decrease in cell area [2]: augmented the 10 nM OT response

Molecule: KAHEFYLAAHPTDALFASP (KAHEFYLAAHPTDALFASP-NH2) [control peptide, same amino acids as the 2.022 kDa peptide, residues ordered randomly, reference compound]
- effect on bradykinin response (cell area) (A7R5 cells): did not affect the bradykinin response
- effect on cell area when administered without bradykinin (A7R5 cells): Neither the 2.022 kDa peptide nor the control peptide had an effect on cell area

Molecule: RPPGFSPFR [Bradykinin, bradykinin, reference compound]
- pIC50 [1]: 8.30
